Data: patent publication US20150065709A1, “Aminoquinazoline Derivative And Use Thereof In Preparing Anti-Malignant Tumor Medicament” (METABOMICS, INC, priority 2012, published 2015)

How the values were obtained:
[1] = tested on: HCC827 (non-small cell lung cancer); assay: Transplanted tumor in nude mice, HCC827 model; format: in vivo, nude mice (BALB/c)
Excerpt: Furthermore, more pharmacological models of tumor cell lines in nude mice were utilized to validate the inhibitory effects of compound Ie. The test method was specifically described as follows: H1975, A549, HCC827, A431, N87, MDA-MD-468 and CAL27 tumor cells respectively were inoculated into nude mice (BALB/c, male, 5-6 weeks of age), and when the mean tumor volume reaches 150 mm^3 mice was randomized into groups. The H1975 tumor model in nude mice includes one positive control group and three dosage groups of compound Ie (6.7 mg/kg/day, 13.4 mg/kg/day, and 20.1 mg/kg/day. The A549 tumor model in nude mice includes one positive control group, two dosage groups of compound Ie (10 mg/kg/day, 20 mg/kg/day), and one dosage group of Docetaxel (12 mg/kg/day). The HCC827 tumor model in nude mice includes one positive control group, two dosage groups of compound Ie (0.5 mg/kg/day, 2.5 mg/kg/day), and one dosage group of Erlotinib (12.5 mg/kg/day). The A431 tumor model in nude mice includes one positive control group, two dosage groups of compound Ie (2.5 mg/kg/day, 5 mg/kg/day), and one dosage group of Erlotinib (50 mg/kg/day). […] The tumor size and body weight of nude mice were recorded twice weekly from the first day of administration. The tumor volume was calculated using formula (1×w^2), wherein 1 and w respectively represents the maximum and minimum size in each measurement. […]

EGFR^L858R/T790M = EGFR^L858R/T790M (Homo sapiens, UniProt P00533, L858R/T790M); assay: Caliper Mobility Shift Assay, double mutant EGFR kinase; format: biochemical; settings: read-out: Inhibition of Kinase Activity (IC50, nM) EGFR^L858R/T790M
EGFR^L858R/T790M, sequence (P00533 25-1210 T790M/L858R): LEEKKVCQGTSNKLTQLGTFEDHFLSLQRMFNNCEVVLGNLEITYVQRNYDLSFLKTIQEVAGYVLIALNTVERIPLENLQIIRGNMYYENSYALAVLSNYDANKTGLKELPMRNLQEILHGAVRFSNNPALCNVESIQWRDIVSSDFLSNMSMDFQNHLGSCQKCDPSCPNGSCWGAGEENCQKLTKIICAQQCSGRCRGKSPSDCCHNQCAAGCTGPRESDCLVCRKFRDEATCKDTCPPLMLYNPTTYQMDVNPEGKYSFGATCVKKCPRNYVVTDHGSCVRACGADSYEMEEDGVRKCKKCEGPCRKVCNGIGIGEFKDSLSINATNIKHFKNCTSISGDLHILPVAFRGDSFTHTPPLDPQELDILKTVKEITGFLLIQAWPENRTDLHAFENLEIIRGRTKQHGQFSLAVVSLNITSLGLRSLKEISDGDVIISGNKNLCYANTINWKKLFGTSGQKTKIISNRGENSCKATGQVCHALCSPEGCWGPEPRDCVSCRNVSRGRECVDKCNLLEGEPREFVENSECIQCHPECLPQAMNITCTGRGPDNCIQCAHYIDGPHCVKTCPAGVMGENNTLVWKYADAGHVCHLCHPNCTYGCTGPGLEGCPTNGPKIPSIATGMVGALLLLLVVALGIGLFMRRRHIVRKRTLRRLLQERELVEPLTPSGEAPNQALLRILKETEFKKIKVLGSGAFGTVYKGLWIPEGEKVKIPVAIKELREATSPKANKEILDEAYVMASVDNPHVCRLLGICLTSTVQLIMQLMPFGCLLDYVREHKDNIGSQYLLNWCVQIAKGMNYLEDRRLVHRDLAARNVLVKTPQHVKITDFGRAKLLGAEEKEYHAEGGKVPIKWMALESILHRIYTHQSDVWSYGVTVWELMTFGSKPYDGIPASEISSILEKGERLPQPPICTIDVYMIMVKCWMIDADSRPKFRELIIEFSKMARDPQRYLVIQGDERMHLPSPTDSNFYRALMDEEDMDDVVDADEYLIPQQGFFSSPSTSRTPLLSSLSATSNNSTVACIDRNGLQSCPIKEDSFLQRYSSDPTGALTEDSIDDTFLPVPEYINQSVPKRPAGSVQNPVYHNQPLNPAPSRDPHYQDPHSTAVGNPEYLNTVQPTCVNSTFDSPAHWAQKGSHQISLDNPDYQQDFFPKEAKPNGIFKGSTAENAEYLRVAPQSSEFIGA
Procedure: Half maximal inhibitory concentration IC50 (the concentration of a compound that is required for 50% inhibition of the activity of an enzyme) was tested based on an immobilized enzyme mixing with a specific substrate and the test compounds in different concentrations. The used test method was Caliper Mobility Shift Assay. […] […].
According to the same test method, the inhibitory effects of the compound of Formula Ie on mutant EGFR kinases were tested, including single mutant EGFR^LS58R, EGFR^T790M and double mutant EGFR^L858R/T790M kinases.

H1650 = assay: Inhibition of tumor cells, WST method; format: cell-based; settings: Homo sapiens, NCI-H1650, 48 hours
Procedure: (§1) (1) Compounds: in vitro studies the test compounds was dissolved in 100% DMSO and diluted until the final concentration of DMSO was 0.1%. The 0.1% (v/v) DMSO was added into culture medium as solvent control. 9 concentration gradients were tested and each gradient was repeated twice. (2) Tumor cell lines: the tumor cell lines were cultivated in RPMI10 culture medium containing 10% fetal calf serum in incubator at 37° C. in a 5% CO2 air incubator. The tested tumor cell lines were: BT474, MDA-MB-231, SK-Br-3, A431, H292, H1975, HCC827, A549, H1650 and H1734. (3) MTS method: cells were seeded into 96-well plate to give a density of about 3000 cells per well, and incubated overnight in a humidified incubator at 37° C. In the next day, the test compounds were added to the wells and further incubated for 72 hours. The cell activity was detected using MTS. IC50 was calculated (the concentration of a compound that is required for 50% inhibition of the cell growth versus the DMSO control group, using nonlinear regression analysis of software GraphPad Prism). […] In a 96-well plate, each test compound was tested at 9 dosage concentrations and each dosage was made in triplicate. Samples were added in 100 μL/well. Cell control and negative control wells contained diluents instead of compounds. Except the negative control well, 100 μL cell suspension of complete medium was added into each test well, wherein corresponding cell numbers were included to assure that the cells in cell control well just cover the bottom of the well as the required incubation time was reached. The plate was incubated in a CO2 incubator at 37° C. for 48 hours. The liquid in test wells was removed by pipetting. 100 μL CCK-8 (Cell counting Kit-8, purchased from DOJINDO Molecular Technologies) detection liquid (containing 10% CCK-8, 5% FBS corresponding medium) was added into each test well, then the plate was incubated in a CO2 incubator under at 37° C. for 3 hours. OD value was detected by ELIASA at A450 nm. Cell viability percentage (%)=(O.D. test compound-O.D. blank)/(O.D. control-O.D. blank)×100. Mean value was calculated for each 3 repeated wells, and IC50 was calculated using nonlinear regression (fitted curve) data analysis method.
(§2) Parts of test results of compound Ie listed in the table 3 and all of the test results listed in the table 4 were obtained by WST method.

A431 = assay: Inhibition of tumor cells, WST method; format: cell-based; settings: Homo sapiens, A-431, 48 hours
Procedure: as §1, §2

ZR-75-30 = assay: Inhibition of tumor cells, WST method; format: cell-based; settings: Homo sapiens, Breast
Procedure: as §1, §2

SK-Br-3 = assay: Inhibition of tumor cells, WST method; format: cell-based; settings: Homo sapiens, 48 hours
Procedure: as §1, §2

NUGC-3 = assay: Inhibition of tumor cells, WST method; format: cell-based; settings: Homo sapiens, Stomach
Procedure: as §1, §2

A549 = assay: Inhibition of tumor cells, WST method; format: cell-based; settings: Homo sapiens, 48 hours
Procedure: as §1, §2

C-33A = assay: Inhibition of tumor cells, WST method; format: cell-based; settings: Homo sapiens, Uterine Neck
Procedure: as §1, §2

ACHN = assay: Inhibition of tumor cells, WST method; format: cell-based; settings: Homo sapiens, Kidney
Procedure: as §1, §2

FaDu = assay: Inhibition of tumor cells, WST method; format: cell-based; settings: Homo sapiens, Head and Neck
Procedure: as §1, §2

NCI-N87 = assay: Inhibition of tumor cells, WST method; format: cell-based; settings: Homo sapiens, Stomach
Procedure: as §1, §2

Calu-3 = assay: Inhibition of tumor cells, WST method; format: cell-based; settings: Homo sapiens, Lung
Procedure: as §1, §2

DU145 = assay: Inhibition of tumor cells, WST method; format: cell-based; settings: Homo sapiens, DU-145, Prostate
Procedure: as §1, §2

NCI-H358 = assay: Inhibition of tumor cells, WST method; format: cell-based; settings: Homo sapiens, Lung
Procedure: as §1, §2

H1975 = assay: Inhibition of tumor cells, WST method; format: cell-based; settings: Homo sapiens, NCI-H1975, 48 hours
Procedure: as §1, §2

Structure (SMILES): CN(C)C/C=C/C(=O)Nc1cc2c(Nc3ccc(F)c(Cl)c3)ncnc2cc1OC(F)F [Compound Ie]
- inhibitory and therapeutic effects on HCC827 tumor model ([1]; 0.5, 2.5 mg/kg/day orally for 21 days): strong inhibitory effects and therapeutic effects
- inhibitory effects on tumor cell growth compared with other drugs, HCC827 model ([1]; versus Erlotinib (12.5 mg/kg/day)): stronger inhibitory effects
- IC50 (EGFR^L858R/T790M): 11 nM
- IC50 (H1650): 0.702 µM
- IC50 (A431): 1.24 µM
- IC50 (ZR-75-30): 0.683 µM
- IC50 (SK-Br-3): 0.028 µM
- IC50 (NUGC-3): 0.055 µM
- IC50 (A549): 0.204 µM
- IC50 (C-33A): 0.057 µM
- IC50 (ACHN): 0.107 µM
- IC50 (FaDu): 0.169 µM
- IC50 (NCI-N87): 0.001 µM
- IC50 (Calu-3): 0.022 µM
- IC50 (DU145): 0.853 µM
- IC50 (NCI-H358): 0.195 µM
- IC50 (H1975): 0.198 µM
